US9102619B2, “Derivatives of 1-phenyl-2-pyridinyl alkyl alcohols as phosphodiesterase inhibitors” (Chiesi Farmaceutici S.p.A., priority 2007, dated 2015)

What was measured:
[1] = system: LPS-induced TNF-α release in peripheral blood mononuclear cells (PBMCs); assay: PDE4 inhibitory activity in the PBMCs assay (LPS-induced TNF-α release); format: cell-based; details: human PBMCs, LPS 3 ng/ml, 18 hours, TNF-α by ELISA
Procedure: The assay, which is based on the known inhibitory activity exerted by PDE4 inhibitors on the lipopolysaccharides (LPS)-induced tumour necrosis factor-alpha (TNF-α release in peripheral blood mononuclear cells (PBMCs), was performed according to a method previously described (Hatzelmann A. et al., J. Pharmacol. Exp. Ther., 2001; 297:267-279; Draheim R. et al., J. Pharmacol. Exp. Ther., 2004; 308:555-563. Cryopreserved human PBMCs, (100 μl/well) were incubated in 96-well plates (10^5 cells/well), for 30 min, in the presence or absence (50 microl) of the test compounds whose concentrations ranged from 10^−12 M to 10^−6M. Subsequently, LPS (3 ng/ml) was added. After 18 hours of incubation at 37° C. in a humidified incubator under an atmosphere of 95% air and 5% CO2, culture medium was collected and TNF-α measured by ELISA.
The effects of the tested compounds were calculated as percentage of inhibition of TNF-α release, assuming LPS-induced TNF-α production in the absence of inhibitor compound as 100% and basal TNF-α production of PBMCs in the absence of LPS as 0%.

PDE4 enzyme = assay: In vitro PDE4 inhibitory activity in the cell free assay (cAMP disappearance, U937 cell supernatant); format: biochemical, human; details: 1.6 μM cAMP, 30° C. 30 minutes
Procedure: The U937 human monocytic cell line was used as source of PDE4 enzyme. Cells were cultured, harvested and supernatant fraction prepared essentially as described in Torphy, T. J. et al., J. Pharmacol. Exp. Ther., 1992; 263:1195-1205. PDE4 activity was determined in cells supernatants by assaying cAMP disappearance from the incubation mixtures. 50 μl of cell supernatant were incubated at 30° C. for 30 minutes in a final volume of 200 μl in the presence of 1.6 μM cAMP with or without the test compound (50 μl).
The concentration of the test compounds ranged between 10^−12 M and 10^−6 M. Reactions were stopped by heat inactivation (2.5 minutes at 100° C.) and residual cAMP was measured using an electrochemiluminescence (ECL)-based immunoassay.
Percentage of inhibition of PDE4 activity was calculated, assuming cAMP disappearance in the absence of inhibitors as 100% and cAMP disappearance in heat inactivated samples as 0%.

HPDE4 = assay: Competition for high affinity HPDE4 ([H^3] rolipram binding); details: 50% inhibition of the binding of [H^3] rolipram
Source text: (§1) Advantageously the compounds of the invention are characterized by selectivity toward LPDE4 higher than that toward HPDE4 as obtained by the determination of their IC50. In the case of LPDE4, the IC50 is the molar concentration of the test compound producing 50% inhibition of cAMP disappearance, assessed as described in Cortijo, J. et al., Br. J. Pharmacol., 1993, 108: 562-568, while in the case of HPDE4, the IC50 is the molar concentration of the test compound producing 50% inhibition of the binding of [H^3] rolipram, assessed as described in Duplantier, A. J. et al., J. Med. Chem., 1996; 39: 120-125. Preferably the HPDE4/LPDE4 IC50 ratio for the compounds of the invention is higher than 5, preferably higher than 10, more preferably higher than 20 and even more preferably higher than 100.
(§2) The affinity toward LPDE4 and HPDE4 was assessed as previously described respectively in Cortijo J. et al., Br. J. Pharmacol., 1993, 108: 562-568 and Duplantier A. J. et al., J. Med. Chem., 1996; 39: 120-125. In the case of LPDE4, the IC50 is the molar concentration of the test compound producing 50% inhibition of cAMP disappearance, while in the case of HPDE4, the IC50 is the molar concentration of the test compound producing 50% inhibition of the binding of [H^3] rolipram.

LPDE4 [2] = assay: Inhibition of low affinity LPDE4 (cAMP disappearance); format: biochemical; details: ratio of IC50 values
Source text: as §1, §2

LPDE4 [3] = system: T1, LPDE4; assay: as above; format: biochemical; details: 50% inhibition of cAMP disappearance
T1 construct: LPDE4 IC50
Source text: as §1, §2

| Compound | IC50 ([1]; PBMC) [µM] | IC50 (PDE4 enzyme) [µM] | IC50 (HPDE4) [µM] | HPDE4/LPDE4 (LPDE4 [2]) | IC50 (LPDE4 [3]) [µM] | IC50 [1] [µM] |
| --- | --- | --- | --- | --- | --- | --- |
| COc1ccc(C(Cc2c(Cl)c[n+]([O-])cc2Cl)OC(=O)C(C)c2ccc(CC(C)C)cc2)cc1OC [Compound 13, (S)-2-(4-isobutyl-phenyl)-propionic acid 2-(3,5-dichloro-1-oxy-pyridin-4-yl)-1-(3,4-dimethoxy-phenyl)-ethyl ester] | 0.013 |  |  |  |  |  |
| COc1ccc(C(Cc2c(Cl)cncc2Cl)OC(=O)Cc2ccccc2)cc1OC (stereo not drawn) [Compound 2, phenyl-acetic acid 2-(3,5-dichloro-pyridin-4-yl)-1-(3,4-dimethoxy-phenyl)-ethyl ester] | 0.089 |  |  |  |  |  |
| N[C@H](C(=O)OC(Cc1c(Cl)cncc1Cl)c1ccc(OC(F)F)c(OCC2CC2)c1)c1ccccc1 (stereo partly drawn) [Compound 7, (S)-amino-phenyl-acetic acid 1-(3-cyclopropylmethoxy-4-difluoromethoxy-phenyl)-2-(3,5-dichloro-pyridin-4-yl)-ethyl ester] | 0.099 | 0.007 |  |  |  |  |
| COc1ccc(C(Cc2c(Cl)cncc2Cl)OC(=O)[C@@H](C)c2ccc(CC(C)C)cc2)cc1OC (stereo partly drawn) [Compound 1, (S)-2-(4-isobutyl-phenyl)-propionic acid 2-(3,5-dichloro-pyridin-4-yl)-1-(3,4-dimethoxy-phenyl)-ethyl ester] | 0.069 | 0.118 |  |  |  |  |
| COc1ccc(C(O)Cc2c(Cl)c[n+]([O-])cc2Cl)cc1OC1CCCC1 (stereo not drawn) [Compound 20] |  |  | 0.299 | 394 | 0.000759 |  |
| COc1ccc(C(Cc2c(Cl)cncc2Cl)OC(=O)C(C)c2ccc(N)cc2)cc1OC (stereo not drawn) [Compound 16, 2-(4-amino-phenyl)-propionic acid 2-(3,5-dichloro-pyridin-4-yl)-1-(3,4-dimethoxy-phenyl)-ethyl ester] | 0.036 | 0.0063 |  |  |  |  |
| O=C(OC(Cc1c(Cl)c[n+]([O-])cc1Cl)c1ccc(OC(F)F)c(OCC2CC2)c1)c1ccc(OC(F)F)c(OCC2CC2)c1 (stereo not drawn) [Compound 14, 3-cyclopropylmethoxy-4-difluoromethoxy-benzoic acid 1-(3-cyclopropylmethoxy-4-difluoromethoxy-phenyl)-2-(3,5-dichloro-1-oxy-pyridin-4-yl)-ethyl ester] | 0.002 |  |  |  |  |  |
| COc1ccc(C(Cc2c(Cl)cncc2Cl)OC(=O)C(C)c2ccc(CC(C)C)cc2)cc1OC1CCCC1 (stereo not drawn) [Compound 9, 2-(4-isobutyl-phenyl)-propionic acid 1-(3-cyclopentyloxy-4-methoxy-phenyl)-2-(3,5-dichloro-pyridin-4-yl)-ethyl ester] | 0.085 | 0.022 | 0.399 | 541 | 0.000738 |  |
| COc1ccc(C(Cc2c(Cl)cncc2Cl)OC(=O)C2(c3ccccc3)CC2)cc1OC (stereo not drawn) [Compound 3, 1-phenyl-cyclopropanecarboxylic acid 2-(3,5-dichloro-pyridin-4-yl)-1-(3,4-dimethoxy-phenyl)-ethyl ester] | 0.052 | 0.118 |  |  |  |  |
| O=C(OC(Cc1c(Cl)cncc1Cl)c1ccc(OC(F)F)c(OCC2CC2)c1)c1ccc(OC(F)F)c(OCC2CC2)c1 (stereo not drawn) [Compound 11, 3-cyclopropylmethoxy-4-difluoromethoxy-benzoic acid 1-(3-cyclopropylmethoxy-4-difluoromethoxy-phenyl)-2-(3,5-dichloro-pyridin-4-yl)-ethyl ester] | 0.051 | 0.012 | 0.153 | 1319 | 0.000116 |  |
| CC(C)(C)OC(=O)N[C@@H](C(=O)OC(Cc1c(Cl)cncc1Cl)c1ccc(OC(F)F)c(OCC2CC2)c1)c1ccccc1 (stereo partly drawn) [Compound 6, (R)-tert-butoxycarbonylamino-phenyl-acetic acid 1-(3-cyclopropylmethoxy-4-difluoromethoxy-phenyl)-2-(3,5-dichloro-pyridin-4-yl)-ethyl ester] | 0.095 | 0.009 |  |  |  |  |
| N[C@@H](C(=O)OC(Cc1c(Cl)cncc1Cl)c1ccc(OC(F)F)c(OCC2CC2)c1)c1ccccc1 (stereo partly drawn) [Compound 8, (R)-amino-phenyl-acetic acid 1-(3-cyclopropylmethoxy-4-difluoromethoxy-phenyl)-2-(3,5-dichloro-pyridin-4-yl)-ethyl ester] |  | 0.022 |  |  |  |  |
| CC(C)Cc1ccc(C(C)C(=O)OC(Cc2c(Cl)cncc2Cl)c2ccc(OC(F)F)c(OCC3CC3)c2)cc1 (stereo not drawn) [Compound 12, 2-(4-isobutyl-phenyl)-propionic acid 1-(3-cyclopropylmethoxy-4-difluoromethoxy-phenyl)-2-(3,5-dichloro-pyridin-4-yl)-ethyl ester] | 0.456 | 0.012 |  |  |  |  |
| CC(C)Cc1ccc(C(C)C(=O)OC(Cc2c(Cl)c[n+]([O-])cc2Cl)c2ccc(OC(F)F)c(OCC3CC3)c2)cc1 (stereo not drawn) [Compound 15, 2-(4-isobutyl-phenyl)-propionic acid 1-(3-cyclopropylmethoxy-4-difluoromethoxy-phenyl)-2-(3,5-dichloro-1-oxy-pyridin-4-yl)-ethyl ester] |  | 0.0086 | 0.00217 | 273 | 0.000169 | 0.015 |
| COc1ccc(C(=O)OC(Cc2c(Cl)cncc2Cl)c2ccc(OC)c(OC)c2)cc1OC (stereo not drawn) [Compound 4, 3,4-dimethoxy-benzoic acid 2-(3,5-dichloro-pyridin-4-yl)-1-(3,4-dimethoxy-phenyl)-ethyl ester] | 0.0342 | 0.0034 |  |  |  |  |
